According to US7658937B2, “Anthraquinones and process for the preparation and method of use thereof” (Board of Trustees of Michigan State University, priority 2004, dated 2010):

Columns and labels:
B. malayi Microfilaria = experiment: Antifilarial activity against microfilaria at 5 ppm (Example 3); assay type: cell-based, Brugia malayi
[1] = system: male B. malayi adult worms; experiment: Antifilarial activity against male adult worms at 5 ppm (Example 3); assay type: cell-based, Brugia malayi; conditions: monitored for 20 days
Method: (§1) Live adult male and female B. malayi were obtained from John McCall, University of Georgia, Athens, Ga. (NIH Subcontract). Adult worms were transferred to 6 well plates (3 worms, male or female per well) containing fresh RPMI 1640 culture medium supplemented with L-glutamine and penicillin/streptomycin. Anthraquinones were dissolved separately in 100% DMSO (4mg/ml) and diluted with RPMI media to obtain a final concentration of 5 ppm. Duplicate control groups received 2.5% DMSO or no DMSO. Every 48 h, the medium from each well was removed and replaced with fresh RPMI with or without drug in DMSO. The movement and mortality of the filarial were monitored every 24 h for 20 days. All B. malayi worms in control wells were fully motile throughout the study and the worms treated with anthraquinones were dead.

[2] = system: female B. malayi adult worms; experiment: Antifilarial activity against female adult worms at 5 ppm (Example 3); assay type: cell-based, Brugia malayi; conditions: monitored for 20 days
Method: as §1

[3] = system: adult female filarial (Brugia malayi) worms; experiment: Mortality and inhibition of motility of adult female filarial worms at 5 ppm (Example 2); assay type: cell-based; conditions: for time to 100% mortality: adult female worms
Source text: (§2) A collection of 100 adult female Brugia malayi were obtained through an NIH subcontract from Dr. John McCall, University of Georgia in order to test the efficacy of anthraquinones as antifilarial agents. Three worms per well were transferred to 6 well plates containing fresh RPMI 1640 culture medium supplemented with L-glutamine and penicillin/streptomycin. […] Duplicate control groups received 2% DMSO or no DMSO. The medium was removed and replaced with fresh RPMI with or without drug in DMSO every 48 h. The movement and viability of the adult worms were monitored every 24 h till 10 days. The B. malayi worms in control wells were fully motile till the end of 10th day and the worms treated with anthraquinones were dead.
The anthraquinones A, B, D, E, F, J, Q and R, selected randomly, were assayed against adult female filarial (Brugia malayi) worms for mortality and inhibition of motility. […] Other anthraquinones tested gave 100% mortality between 3-10 days (Table 3)

B. Malayi adult worms = experiment: Dose response of active anthraquinones against adult worms (50 to 3.12 ppm); assay type: cell-based, Brugia malayi
Source text: as §2
Te assay was repeated with anthraquinones B, F, J and R since they killed the worms quickly compared to the other anthraquinones tested.

[4] = system: human filarial parasite, B.malayi; experiment: Activity of daylily anthraquinone against human filarial parasite; set-up: species or system Brugia malayi
Schistosoma mansoni = conditions: naturally occurring anthraquinone from daylily roots; Cichewicz et al. 2002; cited from earlier work
[5] = system: adult female and male B. malayi; experiment: Morphology of H & E stained sections of killed adult worms (FIGS. 6-9); assay type: cell-based, Brugia malayi; conditions: killed by 5 ppm, H & E stain
Source text: FIG. 6 is a cross-sectional view of H & E stained normal control adult female Brugia malayi. Normal duplicate intrauterine structures contains many well-formed microfilaria larvae that have not yet been released from the uterus. Magnification×400. Calibration mark indicates 100 microns in FIGS. 6-9).
FIG. 7 is a longitudinal sectional view of normal adult male B. malayi. […] Magnification×40.

| SMILES | 100% Mortality of Microfilaria (Days)* (B. malayi Microfilaria) | 100% Mortality of female B. malayi [2] [days] | 100% Mortality of B. Malayi ([3]; adult worms) [days] | also measured |
| --- | --- | --- | --- | --- |
| CCCSc1ccc2nc(NC(=O)OC)[nH]c2c1 [Albendazole, reference compound] | No Mortality | 16 | 16 | 100% Mortality of male B. malayi [1]: 9 days |
| Cc1cc2c(c(O)c1O)C(=O)c1c(O)cccc1C2=O [Anthraquinone J, 1,2,8-Trihydroxy-3-methyl anthraquinone] | 3 days | 5 | 5 | 100% Mortality of B. malayi (Days) (B. Malayi adult worms; 3.125 ppm): No Mortality; 100% Mortality of B. Malayi (B. Malayi adult worms; 6.25 ppm): 5 days; 100% Mortality of B. Malayi (B. Malayi adult worms; 12.5 ppm): 4 days; 100% Mortality of B. Malayi (B. Malayi adult worms; 25 ppm): 3 days; 100% Mortality of B. Malayi (B. Malayi adult worms; 50 ppm): 2 days; activity against human filarial parasite B.malayi [4]: active; 100% Mortality of male B. malayi [1]: 5 days; activity against Schistosoma mansoni (Schistosoma mansoni): significant activity; time to 100% mortality [3]: 48 h |
| O=C1c2ccccc2C(=O)c2c1ccc(O)c2O [Anthraquinone A, 1,2-Dihydroxy anthraquinone] | 3 days | 5 | 11 |  |
| COc1c(C)cc2c(c1OC)C(=O)c1ccccc1C2=O [Anthraquinone P, 1,2-Dimethoxy-3-methyl anthraquinone] | No Morality | 11 | 11 |  |
| O=C1c2cccc(O)c2C(=O)c2c1ccc(O)c2O [Anthraquinone I, 1,2,8-Trihydroxy anthraquinone] | 3 days | 14 | 14 |  |
| O=C1c2ccccc2C(=O)c2c1cc(O)c(O)c2O [Anthraquinone F, 1,2,3-Trihydroxy anthraquinone] | 3 days | 5 | 5 | 100% Mortality of B. Malayi (B. Malayi adult worms; 3.125 ppm): 5 days; 100% Mortality of B. Malayi (B. Malayi adult worms; 6.25 ppm): 5 days; 100% Mortality of B. Malayi (B. Malayi adult worms; 12.5 ppm): 4 days; 100% Mortality of B. Malayi (B. Malayi adult worms; 25 ppm): 4 days; 100% Mortality of B. Malayi (B. Malayi adult worms; 50 ppm): 2 days |
| O=C1c2ccc(O)c(O)c2C(=O)c2cccc(O)c21 [Anthraquinone H, 1,2,5-Trihydroxy anthraquinone] | 3 days | 9 | 9 |  |
| O=C1c2cc(O)cc(O)c2C(=O)c2cccc(O)c21 [Anthraquinone L, 1,3,5-Trihydroxy anthraquinone] | 3 days | 7 | 7 |  |
| O=C1c2cccc(O)c2C(=O)c2c(O)ccc(O)c21 [Anthraquinone M, 1,4,8-Trihydroxy anthraquinone] | 5 days | 9 | 9 |  |
| Cc1c(O)c(O)cc2c1C(=O)c1c(O)cccc1C2=O [Anthraquinone K, 1-Methyl-2,3,8-trihydroxy anthraquinone] | 1 days | 3 | 3 | 100% Mortality of male B. malayi [1]: 5 days |
| O=C1c2cc(O)c(O)c(O)c2C(=O)c2cccc(O)c21 [Anthraquinone N, 1,2,3,-5-Tetrahydroxy anthraquinone] | 3 days | 5 | 5 | 100% Mortality of male B. malayi [1]: 6 days |
| O=C1c2ccccc2C(=O)c2c(O)ccc(O)c21 [Anthraquinone E, 1,4-Dihydroxy anthraquinone] | No Mortality | 10 | 10 |  |
| O=C1c2ccccc2C(=O)c2c(O)cc(O)cc21 [Anthraquinone D, 1,3-Dihydroxy anthraquinone] | No Mortality |  |  | 100% Mortality of female B. malayi (Days) [2]: No Mortality; 100% Mortality of B. malayi (Days) ([3]; adult worms): No activity |
| COc1c(C)cc2c(c1O)C(=O)c1ccccc1C2=O [Anthraquinone O, 1-Hydroxy-2-methoxy-3-methyl anthraquinone] | No Mortality |  |  | 100% Mortality of female B. malayi (Days) [2]: No Mortality; 100% Mortality of B. malayi (Days) ([3]; adult worms): No activity |
| COc1cc2c(c(C)c1OC)C(=O)c1c(O)cccc1C2=O [Anthraquinone S, 1-Methyl-2,3-dimethoxy-8-hydroxy anthraquinone] | No Mortality | 9 | 9 | activity ([3]; adult worms, at 9 days): 50% |
| Cc1cc2c(c(O)c1O)C(=O)c1ccccc1C2=O [Anthraquinone B, 1,2-Dihydroxy-3-methyl anthraquinone] | 3 days | 5 | 5 | 100% Mortality of B. Malayi (B. Malayi adult worms; 3.125 ppm): 6 days; 100% Mortality of B. Malayi (B. Malayi adult worms; 6.25 ppm): 5 days; 100% Mortality of B. Malayi (B. Malayi adult worms; 12.5 ppm): 4 days; 100% Mortality of B. Malayi (B. Malayi adult worms; 25 ppm): 3 days; 100% Mortality of B. Malayi (B. Malayi adult worms; 50 ppm): 1 days; morphology of adult female B. malayi, cross-section [5]: disruption of the stable cuticle and hypodermal regions, along with disorganization of the intrauterine microfilariae; morphology of adult male B. malayi, longitudinal section [5]: marked loss of cellularity in hypodermal and deeper structures; 100% Mortality of male B. malayi [1]: 6 days; time to 100% mortality [3]: 24 h |
| COc1c(C)cc2c(c1O)C(=O)c1c(O)cccc1C2=O [Anthraquinone Q, 1,8-Dihydroxy-2-methoxy-3-methyl anthraquinone] | No Mortality |  |  | 100% Mortality of female B. malayi (Days) [2]: No Mortality; 100% Mortality of B. malayi (Days) ([3]; adult worms): No activity |
| O=C1c2cc(O)c(O)cc2C(=O)c2c(O)cccc21 [Anthraquinone G, 2,3,5-Trihydroxy anthraquinone] | 3 days | 5 | 5 |  |
| COc1cccc2c1C(=O)c1c(cc(C)c(OC)c1O)C2=O [Anthraquinone R, 1-Hydroxy-2,8-dimethoxy-3-methyl anthraquinone] | No Mortality | 7 | 7 | 100% Mortality of B. malayi (Days) (B. Malayi adult worms; 3.125 ppm): No Mortality; 100% Mortality of B. Malayi (B. Malayi adult worms; 6.25 ppm): 8 days; 100% Mortality of B. Malayi (B. Malayi adult worms; 12.5 ppm): 4 days; 100% Mortality of B. Malayi (B. Malayi adult worms; 25 ppm): 2 days; 100% Mortality of B. Malayi (B. Malayi adult worms; 50 ppm): 1 days; time to 100% mortality [3]: 24 h |
| Cc1c(O)c(O)cc2c1C(=O)c1ccccc1C2=O [Anthraquinone C, 1-Methyl-2,3-dihydroxy anthraquinone] | 3 days | 7 | 7 |  |
